# EP0203488A2, “7-Azolyl-1-cyclopropyl-1,4-dihydro-4-oxo-3-quinoline carboxylic acids and 1,8-naphthyridine carboxylic acids, process for their preparation and bactericidal agents containing them” (BAYER AG, priority 1985, dated 1986)
# Key:
# Assay in all cases: Agar dilution test (Isosensitest medium), MIC
# Type in all cases: cell-based
# [1] = system: Klebsiella pneum. 63; details: Agardilutionstest / Isosensitestmedium, read-out: MHK-Werte
# From the text: (§1) In der nachstehenden Tabelle sind die MHK-Werte einiger der erfindungsgemäßen Verbindungen im Vergleich zu Ciprofloxacin angegeben.
# [2] = system: Proteus vulg. 1017; details: Agardilutionstest / Isosensitestmedium, read-out: MHK-Werte
# From the text: as §1
# [3] = system: Klebsiella pneum. 8085; details: Agardilutionstest / Isosensitestmedium, read-out: MHK-Werte
# From the text: as §1
# [4] = system: Staph. aur. 1756; details: Agardilutionstest / Isosensitestmedium, read-out: MHK-Werte
# From the text: as §1
# [5] = system: E.coli Neum.; details: Escherichia coli, Agardilutionstest / Isosensitestmedium, read-out: MHK-Werte
# From the text: as §1
# [6] = system: Staph. aur. FK 422; details: Agardilutionstest / Isosensitestmedium, read-out: MHK-Werte
# From the text: as §1
# [7] = system: E.coli T 7; details: Escherichia coli, T7, Agardilutionstest / Isosensitestmedium, read-out: MHK-Werte
# From the text: as §1
# [8] = system: Streptococcus faec.27101; details: Agardilutionstest / Isosensitestmedium, read-out: MHK-Werte
# From the text: as §1
# [9] = system: Pseudom.aerug.Ellsw.; details: Agardilutionstest / Isosensitestmedium, read-out: MHK-Werte
# From the text: as §1
# [10] = system: Staph. aur. 133; details: Agardilutionstest / Isosensitestmedium, read-out: MHK-Werte
# From the text: as §1
SMILES,MIC [1],MIC [2],MIC [3],MIC [4],MIC [5],MIC [6],MIC [7],MIC [8],MIC [9],MIC [10]
"O=C(O)c1cn(C2CC2)c2c(F)c(-n3ccnc3)c(F)cc2c1=O [Beispiel 21, 1-Cyclopropyl-6,8-difluor-1,4-dihydro-7-(1-imidazolyl)-4-oxo-3-chinolincarbonsäure]",0.06 µg/mL,0.125 µg/mL,0.03 µg/mL,0.125 µg/mL,0.03 µg/mL,0.125 µg/mL,0.03 µg/mL,0.5 µg/mL,0.25 µg/mL,0.125 µg/mL
"O=C(O)c1cn(C2CC2)c2c(F)c(-n3cccc3)c(F)cc2c1=O [Beispiel 2, 1-Cyclopropyl-6,8-difluor-1,4-dihydro-4-oxo-7-(1-pyrrolyl)-3-chinolincarbon-säure]",0.5 µg/mL,0.5 µg/mL,0.125 µg/mL,0.06 µg/mL,0.25 µg/mL,0.06 µg/mL,0.125 µg/mL,0.25 µg/mL,1 µg/mL,0.06 µg/mL
"O=C(O)c1cn(C2CC2)c2c(Cl)c(-n3ccnc3)c(F)cc2c1=O [Beispiel 20, 8-Chlor-1-cyclopropyl-6-fluor-1,4-dihydro-7-(1-imidazolyl)-4-oxo-3-chinolincarbonsäure]",0.25 µg/mL,0.25 µg/mL,0.03 µg/mL,0.03 µg/mL,0.03 µg/mL,0.03 µg/mL,0.03 µg/mL,0.125 µg/mL,0.5 µg/mL,0.03 µg/mL
"O=C(O)c1cn(C2CC2)c2cc(-n3cccc3)c(F)cc2c1=O [Beispiel 1, 1-Cyclopropyl-6-fluor-1,4-dihydro-4-oxo-7-(1-pyrrolyl)-3-chino-lincarbonsäure]",0.125 µg/mL,0.25 µg/mL,0.06 µg/mL,0.03 µg/mL,0.06 µg/mL,0.03 µg/mL,0.06 µg/mL,0.25 µg/mL,0.5 µg/mL,0.03 µg/mL
"CCn1cc(C(=O)O)c(=O)c2cc(F)c(-n3ccnc3)c(F)c21 [EP 115 049, 1-Ethyl-6,8-difluor-1,4-dihydro-7-(1-imidazolyl)-4-oxo-3-chinolincarbonsäure, reference compound]",0.5 µg/mL,0.5 µg/mL,0.25 µg/mL,1 µg/mL,0.125 µg/mL,0.5 µg/mL,0.125 µg/mL,2 µg/mL,1 µg/mL,1 µg/mL
